Legend:
[1] = system: human gastric epithelial (AGS) cells infected with H. pylori (ATCC 43504); test: Incidence of H. pylori-induced cell death (MTT assay-1); type: cell-based; conditions: FIG. 1
Experimental: In order to determine cytoprotective properties of revaprazan against H. pylori infection, gastric mucosal cells were pretreated with revaprazan and rebamipide prior to H. pylori infection, and the incidence of cell death was measured. Rebamipide, known to have cytoprotective properties, was used as a control drug.
The human gastric epithelial (AGS, KCLB 21739) cells were seeded onto 96-well plate at 5×10^4 cells/ml and cultured in RPMI 1640 (Gibco BRL, Grand Island, N.Y., U.S.A.), supplemented with 100 units/mL penicillin, 100 ug/mL streptomycin, and 10% FBS (Fetal Bovine Serum). Revaprazan and rebamipide, dissolved in sterilized water, were added to AGS cells to reach a final concentration of 50 uM and the cells were incubated at 37° C. for 16 hours. To remove RPMI 1640 media, the plate was centrifuged at 24° C., 3000 rpm for 5 minutes and washed three times with PBS (137 mM NaCl, 2.7 mM KCl, 10 mM Na2HPO4, and 2 mM KH2PO4). For inoculation, H. pylori (ATCC 43504) cultures were resuspended in PBS and cocultured with AGS cells at a final concentration of 5×10^8 CFU/ml. After 48 hours of incubation at 37° C., the culture was centrifuged at 24° C., 3000 rpm for 5 minutes to remove the culture medium, i.e., RPMI 1640, and then total viable cell numbers were assessed by MTT (3-[4,5-dimethylthiazol-2-yl]-2,5-diphenyl tetrazolim bromide) assay method. 1 mg/ml of an MTT solution prepared by dissolving MTT (Amresco, Ohio, U.S.A.) in PBS (137 mM NaCl, 2.7 mM KCl, 10 mM Na2HPO4, and 2 mM KH2PO4) was added to each well (50 μl/well), followed by incubation at 37° C. for 4 hours. The supernatant was then removed by centrifugation at 24° C., 3000 rpm for 5 minutes and the formazan grains formed by the viable cells were dissolved in 99.5% dimethyl sulfoxide (DMSO) (Kanto, Tokyo, Japan) (50 μl/well), and the optical intensity was measured at 540 nm using an ELISA reader (TECAN, Maennedorf, Switzerland).

COX-2 (cyclooxygenase-2) = test: Expression level of COX-2 in sulindac-treated cells (RT-PCR); type: cell-based, rat; conditions: RGM-1 cells, revaprazan 25 uM (rebamipide 50 uM) 16 hours, then sulindac 100 uM 8 hours, FIG. 6
Experimental: (§1) In order to evaluate cytoprotective effect of revaprazan, 100 μM of sulindac belonging to NSAIDs was added to the rat cells, and the expression levels of pro-angiogenic growth factors, VEGF (Vascular Endothelial Growth Factor), interleukin-8 (IL-8), and COX-2 (cyclooxygenase-2) were measured. Rebamipide (50 μM), known to have cytoprotective properties, was used as a control drug and revaprazan (25 μM) was used as a test drug. The rat gastric mucosal (RGM-1, RIKEN cell bank, Japan) cells were seeded in culture dishes at 2×10^6 cells/100 mm^2 and cultured in RPMI 1640 (Gibco BRL, Grand Island, N.Y., U.S.A.), supplemented with 100 units/mL penicillin, 100 ug/mL streptomycin, and 10% FBS (Fetal Bovine Serum). […] The culture media were removed and the cells were washed three times with PBS (137 mM NaCl, 2.7 mM KCl, 10 mM Na2HPO4, and 2 mM KH2PO4). A solution of sulindac in DMSO was added to the cells to reach a final concentration of 100 uM and the cells were cultured at 37° C. for 8 hours. The cultured cells were collected by centrifugation at 23° C. at 3000 rpm for 3 minutes, and the total RNA was isolated from the cells using the TRIzol reagent (Life technologies, Milan, Italy). Sterilized RNase-free water was added to 2 μg of the total RNA and 1 μl of 10 pmol/λ oligo dT to obtain reaction solutions with a volume of 34 μl. […]

[2] = system: rat gastric mucosal (RGM-1) cells; test: Incidence of ethanol-induced cell death (MTT assay-2); type: cell-based; conditions: FIG. 2
Experimental: The rat gastric mucosal (RGM-1, RIKEN cell bank, Japan) cells were seeded onto 96-well plate at 5×10^4 cells/ml and cultured in DMEM-F12 (Gibco BRL, Grand Island, N.Y., U.S.A.), supplemented with 100 units/mL penicillin, 100 ug/mL streptomycin, and 10% FBS (Fetal Bovine Serum). […] To remove DMEM-F12 media, the plate was centrifuged at 24° C., 3000 rpm for 5 minutes and washed three times with PBS (137 mM NaCl, 2.7 mM KCl, 10 mM Na2HPO4, and 2 mM KH2PO4). Then, ethanol-containing media (200 mM ethanol-containing DMEM-F12, supplemented with 100 units/mL penicillin, 100 ug/mL streptomycin, and 10% FBS) was added to the cells, and the cells were cultured at 37° C. for 16 hours. After the incubation, the culture was centrifuged at 24° C., 3000 rpm for 5 minutes to remove the culture medium and then total viable cell numbers were assessed by MTT (3-[4,5-dimethylthiazol-2-yl]-2,5-diphenyl tetrazolim bromide) assay method. 1 mg/ml of an MTT solution prepared by dissolving MTT (Amresco, Ohio, U.S.A.) in PBS (137 mM NaCl, 2.7 mM KCl, 10 mM Na2HPO4, and 2 mM KH2PO4) was added to each well (50 μl/well), followed by incubation at 37° C. for 4 hours. The supernatant was then removed by centrifugation at 24° C., 3000 rpm for 5 minutes and the formazan grains formed by the viable cells were dissolved in 99.5% dimethylsulfoxide (DMSO) (Kanto, Tokyo, Japan) (50 μl/well), and the optical intensity was measured at 540 nm using an ELISA reader (TECAN, Maennedorf, Switzerland).

interleukin-8 (IL-8) = test: Expression level of IL-8 in sulindac-treated cells (RT-PCR); type: cell-based, rat; conditions: RGM-1 cells, revaprazan 25 uM (rebamipide 50 uM) 16 hours, then sulindac 100 uM 8 hours, FIG. 6
Experimental: as §1

## Cc1nc(Nc2ccc(F)cc2)nc(N2CCc3ccccc3C2C)c1C (stereo not drawn) [revaprazan, 5,6-dimethyl-2-(4-fluorophenylamino)-4-(1-methyl-1,2,3,4-tetrahydroisoquinolin-2-yl)pyrimidine]
[1]; 50 uM each
  cytoprotective effect against H. pylori-induced cytotoxicity compared with rebamipide: equal to or greater than rebamipide
[1]; 50 uM pretreatment for 16 hours, then 48-hour H. pylori infection
  gastric mucosal cytotoxicity by H. pylori infection: significantly reduced
COX-2 (cyclooxygenase-2)
  expression level of COX-2 versus rebamipide-sulindac treatment group: much higher
[2]; 50 uM each
  cytoprotective effect against ethanol-induced cytotoxicity compared with rebamipide: equal to or greater than rebamipide
[2]; 50 uM pretreatment for 16 hours, then 200 mM ethanol for 16 hours
  ethanol-induced gastric mucosal cytotoxicity: significantly reduced
interleukin-8 (IL-8)
  expression level of IL-8 versus rebamipide-sulindac treatment group: much higher
